{"source": "patent EP0230052B1", "about": "“Immunoamplifiers and related Compositions” (Gottlieb, Arthur A., priority 1985, dated 1987)", "key": {"[1]": {"test_system": "DH response", "test": "Modulator assay methods of the '379 patent (amplifier activity, DH test)", "type": "in vivo, human", "conditions": "other moieties in effluents of Example 6B process"}, "[2]": {"test_system": "DH skin reaction to tetanus toxoid", "design": "species or system human", "conditions": "in vivo"}, "[3]": {"test_system": "IL-2 production in response to mitogen PHA", "test": "IL-2 in vitro test (PHA-stimulated IL-2 production)", "type": "cell-based, human", "conditions": "optimal concentration of TGG", "excerpt": "The production of IL-2 in response to mitogen was characterized by the existence of the same optimal concentration phenomenon (paradoxical effect) described above."}}}
{"substance": "Gly-Gly", "values": [{"measurement": "immunological activity as assayed by DH test", "setting": "[1]", "value": "None of these other moieties appeared to possess immunological activity"}]}
{"substance": "Ser-Phe", "values": [{"measurement": "immunological activity as assayed by DH test", "setting": "[1]", "value": "None of these other moieties appeared to possess immunological activity"}]}
{"substance": "Tyrosylglycylglycine [TGG]", "values": [{"measurement": "optimum concentration for maximum immune effect", "setting": "[2]", "value": "~3", "unit": "fM"}, {"measurement": "ratio of PHA-stimulated IL-2 production with TGG added to without TGG", "setting": "[3]; subject #1", "value": 1.45}, {"measurement": "ratio of PHA-stimulated IL-2 production with TGG added to without TGG", "setting": "[3]; subject #2", "value": 2.55}]}
